Reference: ChEMBL document CHEMBL1201862, “PubChem BioAssay data set” (2004)
Activity calls are given as the source filed them.

Assays:
Type in all cases: functional
[1] = target: T1, Carboxy-terminal domain RNA polymerase II polypeptide A small phosphatase 1 (Homo sapiens, UniProt Q9GZU7); assay: CTDSP1 inhibitors, concentration-response, biochemical, absorbance readout, ultra-high-throughput screen actives (AID 540297)
T1 sequence (Q9GZU7 whole entry): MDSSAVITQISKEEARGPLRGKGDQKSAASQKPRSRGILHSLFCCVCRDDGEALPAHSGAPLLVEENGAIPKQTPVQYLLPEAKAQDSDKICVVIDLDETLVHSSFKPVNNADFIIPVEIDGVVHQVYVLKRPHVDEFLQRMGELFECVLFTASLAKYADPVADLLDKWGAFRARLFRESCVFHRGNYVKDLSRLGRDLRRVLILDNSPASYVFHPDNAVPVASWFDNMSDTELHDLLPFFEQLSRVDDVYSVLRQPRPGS

[2] = target: Arf-GAP with SH3 domain, ANK repeat and PH domain-containing protein 1 (Homo sapiens, UniProt Q9ULH1);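 further: biochemical fluorescence polarization dose–response screen measuring inhibition of ASAP1; ASAP1 GAP domain stimulating GTP hydrolysis by truncated human ARF1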
[3] = target: T2, Rac GTPase-activating protein 1 (Homo sapiens, UniProt Q9H0H5); assay: blockers of MgcRacGAP-driven Rac1 GTP hydrolysis – biochemical, ADP Hunter fluorescence, primary and confirmatory, confirmation (AID 624330)
T2 sequence (Q9H0H5 whole entry): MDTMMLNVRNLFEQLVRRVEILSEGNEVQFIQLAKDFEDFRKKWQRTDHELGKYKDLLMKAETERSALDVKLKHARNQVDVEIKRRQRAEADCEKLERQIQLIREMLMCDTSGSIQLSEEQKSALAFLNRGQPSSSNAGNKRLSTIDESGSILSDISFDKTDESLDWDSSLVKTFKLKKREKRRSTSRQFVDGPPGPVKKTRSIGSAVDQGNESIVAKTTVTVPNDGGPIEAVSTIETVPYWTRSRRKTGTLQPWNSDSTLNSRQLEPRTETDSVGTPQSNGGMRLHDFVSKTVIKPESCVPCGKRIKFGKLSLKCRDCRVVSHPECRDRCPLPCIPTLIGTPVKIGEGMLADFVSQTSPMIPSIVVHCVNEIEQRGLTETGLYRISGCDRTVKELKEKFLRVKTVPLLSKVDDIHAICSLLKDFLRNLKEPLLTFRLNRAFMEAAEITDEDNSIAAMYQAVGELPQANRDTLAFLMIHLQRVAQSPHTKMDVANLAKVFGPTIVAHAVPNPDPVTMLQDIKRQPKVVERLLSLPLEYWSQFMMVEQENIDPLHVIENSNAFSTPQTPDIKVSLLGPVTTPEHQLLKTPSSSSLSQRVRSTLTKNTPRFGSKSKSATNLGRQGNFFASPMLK

[4] = target: Matrix metalloproteinase-14 (Homo sapiens, UniProt P50281); assay: Dose Response confirmation of uHTS hits for a small molecule inhibitors of MT1-MMP activation in a fluorescence assay set 2.
[5] = target: Botulinum neurotoxin type F (Clostridium botulinum, UniProt P30996); assay: High-throughput multiplex microsphere dose response for inhibitors of toxin protease, specifically Botulinum neurotoxin light chain F protease, compounds from Cherry Pick 02.; settings: read-out: EC50_MICROM
Chain of Botulinum neurotoxin type F (P30996 1-436 limits assumed): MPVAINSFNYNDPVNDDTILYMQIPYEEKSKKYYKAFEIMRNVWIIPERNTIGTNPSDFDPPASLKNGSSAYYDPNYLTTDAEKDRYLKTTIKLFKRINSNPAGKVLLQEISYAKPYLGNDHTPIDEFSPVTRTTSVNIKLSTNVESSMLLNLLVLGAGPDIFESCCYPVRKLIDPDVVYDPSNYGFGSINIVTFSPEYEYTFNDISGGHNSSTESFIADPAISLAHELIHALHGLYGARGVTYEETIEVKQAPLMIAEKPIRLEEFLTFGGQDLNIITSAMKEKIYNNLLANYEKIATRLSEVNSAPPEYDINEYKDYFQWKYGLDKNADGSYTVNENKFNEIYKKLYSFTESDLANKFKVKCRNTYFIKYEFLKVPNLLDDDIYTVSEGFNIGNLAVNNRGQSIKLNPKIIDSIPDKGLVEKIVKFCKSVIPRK

Chain of Arf-GAP with SH3 domain, ANK repeat and PH domain-containing protein 1 (Q9ULH1 whole entry, the tested form may be a part): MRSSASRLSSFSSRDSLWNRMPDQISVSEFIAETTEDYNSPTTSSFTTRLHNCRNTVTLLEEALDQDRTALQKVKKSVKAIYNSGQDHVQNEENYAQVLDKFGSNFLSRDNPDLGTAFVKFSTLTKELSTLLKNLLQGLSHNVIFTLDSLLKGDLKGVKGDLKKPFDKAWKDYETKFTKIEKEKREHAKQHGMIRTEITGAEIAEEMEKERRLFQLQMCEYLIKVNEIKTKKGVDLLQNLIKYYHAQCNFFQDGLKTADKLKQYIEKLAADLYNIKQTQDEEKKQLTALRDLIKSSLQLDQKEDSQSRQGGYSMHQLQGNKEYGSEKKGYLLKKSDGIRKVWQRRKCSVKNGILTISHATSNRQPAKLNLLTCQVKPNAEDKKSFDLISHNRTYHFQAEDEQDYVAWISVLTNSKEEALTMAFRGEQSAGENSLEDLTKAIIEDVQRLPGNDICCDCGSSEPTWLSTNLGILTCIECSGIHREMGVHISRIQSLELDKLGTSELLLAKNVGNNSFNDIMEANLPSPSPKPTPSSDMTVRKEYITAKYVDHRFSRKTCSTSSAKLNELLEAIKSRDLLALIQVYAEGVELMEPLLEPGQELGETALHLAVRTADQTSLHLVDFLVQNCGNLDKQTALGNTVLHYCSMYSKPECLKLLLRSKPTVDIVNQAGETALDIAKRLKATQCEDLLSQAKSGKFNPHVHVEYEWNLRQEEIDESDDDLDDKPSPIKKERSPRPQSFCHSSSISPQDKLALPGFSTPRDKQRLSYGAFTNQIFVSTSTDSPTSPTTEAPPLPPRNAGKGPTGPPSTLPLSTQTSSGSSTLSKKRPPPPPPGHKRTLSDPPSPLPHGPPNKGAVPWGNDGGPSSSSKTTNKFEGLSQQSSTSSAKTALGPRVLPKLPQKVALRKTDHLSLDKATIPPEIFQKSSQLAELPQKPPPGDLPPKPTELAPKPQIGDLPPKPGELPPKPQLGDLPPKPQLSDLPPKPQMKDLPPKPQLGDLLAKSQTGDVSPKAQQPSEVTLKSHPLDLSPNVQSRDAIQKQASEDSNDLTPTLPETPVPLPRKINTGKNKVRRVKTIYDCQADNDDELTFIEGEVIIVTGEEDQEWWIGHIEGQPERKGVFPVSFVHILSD

SMILES: COc1ccc2cc(C(=O)Nc3ccc(Cl)cc3)sc(=O)c2c1OC
- IC50 [1]: 3.51 µM (active)
- IC50 [2]: 12.6 µM (inactive)

SMILES: CN(C)/C=C/c1oc2ccc(O)cc2c1[N+](=O)[O-]
- IC50 [3]: 14 µM (active)
- IC50 [4]: 26.2 µM (inactive)

SMILES: Cc1cc2cc(CNC(=O)c3ccc(S(=O)(=O)N4CCCCC4)cc3)ccc2[nH]1
- EC50 [5]: > 20 µM (inactive)
